What was measured:
Experiment in all cases: Kinase Profiling (KINOMEscan)
Assay type in all cases: binding
[1] = biological target: 456 kinases (of these 395 non-mutant kinases) (Homo sapiens, UniProt Q8TDC3); conditions: BRSK1; 10 μM
[2] = biological target: 456 kinases (of these 395 non-mutant kinases) (Homo sapiens, UniProt O95835); conditions: LATS1; 10 μM
[3] = biological target: 456 kinases (of these 395 non-mutant kinases) (Homo sapiens, UniProt Q9BYT3); conditions: STK33; 10 μM
[4] = biological target: 456 kinases (of these 395 non-mutant kinases) (Homo sapiens, UniProt Q86UX6); conditions: YANK3; 10 μM
[5] = biological target: 456 kinases (of these 395 non-mutant kinases) (Homo sapiens, UniProt P78368); conditions: CSNK1G2; 10 μM
[6] = biological target: 456 kinases (of these 395 non-mutant kinases) (Homo sapiens, UniProt P10721, L576P); conditions: KIT(L576P); 10 μM
[7] = biological target: 456 kinases (of these 395 non-mutant kinases) (Homo sapiens, UniProt P53671); conditions: LIMK2; 10 μM
[8] = biological target: 456 kinases (of these 395 non-mutant kinases) (Homo sapiens, UniProt P21127); conditions: CDC2L1; 10 μM
[9] = biological target: 456 kinases (of these 395 non-mutant kinases) (Homo sapiens, UniProt Q9Y463); conditions: DYRK1B; 10 μM
[10] = biological target: 456 kinases (of these 395 non-mutant kinases) (Homo sapiens, UniProt P06239); conditions: LCK; 10 μM
[11] = biological target: 456 kinases (of these 395 non-mutant kinases) (Homo sapiens, UniProt P10721); conditions: 10 μM
[12] = biological target: 456 kinases (of these 395 non-mutant kinases) (Homo sapiens, UniProt Q96L34); conditions: MARK4; 10 μM
[13] = biological target: 456 kinases (of these 395 non-mutant kinases) (Homo sapiens, UniProt Q02750); conditions: MEK1; 10 μM
[14] = biological target: 456 kinases (of these 395 non-mutant kinases) (Homo sapiens, UniProt P42336, E542K); conditions: PIK3CA(E542K); 10 μM
[15] = biological target: 456 kinases (of these 395 non-mutant kinases) (Homo sapiens, UniProt Q9NSY1); conditions: BIKE; 10 μM
[16] = biological target: 456 kinases (of these 395 non-mutant kinases) (Homo sapiens, UniProt O43283); conditions: LZK; 10 μM
[17] = biological target: 456 kinases (of these 395 non-mutant kinases) (Homo sapiens, UniProt Q9H3Y6); conditions: SRMS; 10 μM
[18] = biological target: 456 kinases (of these 395 non-mutant kinases) (Homo sapiens, UniProt Q99683); conditions: ASK1; 10 μM
[19] = biological target: 456 kinases (of these 395 non-mutant kinases) (Homo sapiens, UniProt Q9HAZ1); conditions: CLK4; 10 μM
[20] = biological target: 456 kinases (of these 395 non-mutant kinases) (Homo sapiens, UniProt P78362); conditions: SRPK2; 10 μM
[21] = biological target: 456 kinases (of these 395 non-mutant kinases) (Homo sapiens, UniProt Q9BZL6); conditions: PRKD2; 10 μM
[22] = biological target: 456 kinases (of these 395 non-mutant kinases) (Homo sapiens, UniProt Q13873); conditions: BMPR2; 10 μM
[23] = biological target: 456 kinases (of these 395 non-mutant kinases) (Homo sapiens, UniProt P08581, M1250T); conditions: MET(M1250T); 10 μM
[24] = biological target: 456 kinases (of these 395 non-mutant kinases) (Homo sapiens, UniProt Q6PHR2); conditions: ULK3; 10 μM
[25] = biological target: 456 kinases (of these 395 non-mutant kinases) (Homo sapiens, UniProt P35968); conditions: VEGFR2; 10 μM
[26] = biological target: 456 kinases (of these 395 non-mutant kinases) (Homo sapiens, UniProt Q05397); conditions: FAK; 10 μM
[27] = biological target: 456 kinases (of these 395 non-mutant kinases) (Homo sapiens, UniProt P45984); conditions: JNK2; 10 μM
[28] = biological target: 456 kinases (of these 395 non-mutant kinases) (Homo sapiens, UniProt O00141); conditions: SGK; 10 μM
[29] = biological target: 456 kinases (of these 395 non-mutant kinases) (Homo sapiens, UniProt Q02763); conditions: TIE2; 10 μM
[30] = biological target: 456 kinases (of these 395 non-mutant kinases) (Homo sapiens, UniProt Q9HCP0); conditions: CSNK1G1; 10 μM
[31] = biological target: 456 kinases (of these 395 non-mutant kinases) (Homo sapiens, UniProt O95382); conditions: ASK2; 10 μM
[32] = biological target: 456 kinases (of these 395 non-mutant kinases) (Homo sapiens, UniProt Q9BQI3); conditions: EIF2AK1; 10 μM

Sequence of 456 kinases (of these 395 non-mutant kinases) (Homo sapiens, UniProt P10721) (P10721 26-976 limits assumed, change not shown): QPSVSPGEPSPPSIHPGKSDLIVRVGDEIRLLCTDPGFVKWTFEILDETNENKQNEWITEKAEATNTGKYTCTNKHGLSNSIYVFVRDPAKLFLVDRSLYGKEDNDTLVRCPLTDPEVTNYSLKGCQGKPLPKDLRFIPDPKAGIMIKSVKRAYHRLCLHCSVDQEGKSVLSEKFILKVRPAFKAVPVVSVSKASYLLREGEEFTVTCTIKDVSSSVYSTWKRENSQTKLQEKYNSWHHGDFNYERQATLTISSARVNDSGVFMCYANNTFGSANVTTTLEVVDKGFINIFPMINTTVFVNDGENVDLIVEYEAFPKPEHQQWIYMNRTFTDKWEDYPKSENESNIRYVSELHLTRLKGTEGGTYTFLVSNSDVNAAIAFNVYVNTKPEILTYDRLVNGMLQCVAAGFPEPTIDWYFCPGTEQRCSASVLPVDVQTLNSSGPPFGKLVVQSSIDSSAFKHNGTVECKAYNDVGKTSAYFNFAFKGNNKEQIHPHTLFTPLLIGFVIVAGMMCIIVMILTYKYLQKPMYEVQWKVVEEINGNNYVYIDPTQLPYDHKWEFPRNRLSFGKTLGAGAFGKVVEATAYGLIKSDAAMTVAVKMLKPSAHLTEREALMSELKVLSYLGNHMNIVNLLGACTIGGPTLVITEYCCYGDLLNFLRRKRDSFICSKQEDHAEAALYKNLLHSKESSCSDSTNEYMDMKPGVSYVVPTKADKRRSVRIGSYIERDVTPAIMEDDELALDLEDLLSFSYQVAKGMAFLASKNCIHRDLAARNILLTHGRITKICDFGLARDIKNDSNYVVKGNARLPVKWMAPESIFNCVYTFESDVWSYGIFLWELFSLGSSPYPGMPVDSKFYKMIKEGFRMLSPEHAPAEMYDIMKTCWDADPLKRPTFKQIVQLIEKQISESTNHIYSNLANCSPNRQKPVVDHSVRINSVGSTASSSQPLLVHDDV
Sequence of 456 kinases (of these 395 non-mutant kinases) (Homo sapiens, UniProt P10721, L576P) (P10721 26-976 L576P limits assumed): as the sequence (P10721 26-976 limits assumed, change not shown) above, with L551P counted along it
Sequence of 456 kinases (of these 395 non-mutant kinases) (Homo sapiens, UniProt Q05397) (Q05397 2-1052 limits assumed, change not shown): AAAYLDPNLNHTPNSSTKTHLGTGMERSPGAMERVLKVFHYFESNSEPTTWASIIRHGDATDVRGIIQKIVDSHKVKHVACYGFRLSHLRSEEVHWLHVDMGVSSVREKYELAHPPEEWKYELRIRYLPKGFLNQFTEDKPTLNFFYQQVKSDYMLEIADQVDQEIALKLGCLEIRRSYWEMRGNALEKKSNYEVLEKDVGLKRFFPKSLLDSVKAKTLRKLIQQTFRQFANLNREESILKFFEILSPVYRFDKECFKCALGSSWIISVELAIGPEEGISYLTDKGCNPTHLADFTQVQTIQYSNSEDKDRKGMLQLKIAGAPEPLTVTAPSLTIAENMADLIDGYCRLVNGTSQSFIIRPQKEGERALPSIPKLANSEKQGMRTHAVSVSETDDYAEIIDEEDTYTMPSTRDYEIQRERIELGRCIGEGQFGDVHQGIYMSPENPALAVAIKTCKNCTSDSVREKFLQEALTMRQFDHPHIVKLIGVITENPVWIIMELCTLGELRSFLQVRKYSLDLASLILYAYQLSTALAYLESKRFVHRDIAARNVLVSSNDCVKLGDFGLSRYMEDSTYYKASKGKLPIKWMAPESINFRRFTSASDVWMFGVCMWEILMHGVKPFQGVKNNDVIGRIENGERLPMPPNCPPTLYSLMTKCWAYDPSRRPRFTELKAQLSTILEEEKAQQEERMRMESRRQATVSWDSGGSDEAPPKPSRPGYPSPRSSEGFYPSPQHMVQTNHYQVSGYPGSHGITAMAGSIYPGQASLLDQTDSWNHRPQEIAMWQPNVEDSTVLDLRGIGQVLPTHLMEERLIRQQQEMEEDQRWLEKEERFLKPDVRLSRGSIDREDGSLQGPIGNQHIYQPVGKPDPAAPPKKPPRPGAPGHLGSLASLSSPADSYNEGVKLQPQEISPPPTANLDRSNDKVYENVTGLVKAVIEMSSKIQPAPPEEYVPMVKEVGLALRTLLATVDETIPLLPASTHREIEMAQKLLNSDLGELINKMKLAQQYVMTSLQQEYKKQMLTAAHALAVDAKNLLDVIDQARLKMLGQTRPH
Sequence of 456 kinases (of these 395 non-mutant kinases) (Homo sapiens, UniProt P35968) (P35968 20-1356 limits assumed, change not shown): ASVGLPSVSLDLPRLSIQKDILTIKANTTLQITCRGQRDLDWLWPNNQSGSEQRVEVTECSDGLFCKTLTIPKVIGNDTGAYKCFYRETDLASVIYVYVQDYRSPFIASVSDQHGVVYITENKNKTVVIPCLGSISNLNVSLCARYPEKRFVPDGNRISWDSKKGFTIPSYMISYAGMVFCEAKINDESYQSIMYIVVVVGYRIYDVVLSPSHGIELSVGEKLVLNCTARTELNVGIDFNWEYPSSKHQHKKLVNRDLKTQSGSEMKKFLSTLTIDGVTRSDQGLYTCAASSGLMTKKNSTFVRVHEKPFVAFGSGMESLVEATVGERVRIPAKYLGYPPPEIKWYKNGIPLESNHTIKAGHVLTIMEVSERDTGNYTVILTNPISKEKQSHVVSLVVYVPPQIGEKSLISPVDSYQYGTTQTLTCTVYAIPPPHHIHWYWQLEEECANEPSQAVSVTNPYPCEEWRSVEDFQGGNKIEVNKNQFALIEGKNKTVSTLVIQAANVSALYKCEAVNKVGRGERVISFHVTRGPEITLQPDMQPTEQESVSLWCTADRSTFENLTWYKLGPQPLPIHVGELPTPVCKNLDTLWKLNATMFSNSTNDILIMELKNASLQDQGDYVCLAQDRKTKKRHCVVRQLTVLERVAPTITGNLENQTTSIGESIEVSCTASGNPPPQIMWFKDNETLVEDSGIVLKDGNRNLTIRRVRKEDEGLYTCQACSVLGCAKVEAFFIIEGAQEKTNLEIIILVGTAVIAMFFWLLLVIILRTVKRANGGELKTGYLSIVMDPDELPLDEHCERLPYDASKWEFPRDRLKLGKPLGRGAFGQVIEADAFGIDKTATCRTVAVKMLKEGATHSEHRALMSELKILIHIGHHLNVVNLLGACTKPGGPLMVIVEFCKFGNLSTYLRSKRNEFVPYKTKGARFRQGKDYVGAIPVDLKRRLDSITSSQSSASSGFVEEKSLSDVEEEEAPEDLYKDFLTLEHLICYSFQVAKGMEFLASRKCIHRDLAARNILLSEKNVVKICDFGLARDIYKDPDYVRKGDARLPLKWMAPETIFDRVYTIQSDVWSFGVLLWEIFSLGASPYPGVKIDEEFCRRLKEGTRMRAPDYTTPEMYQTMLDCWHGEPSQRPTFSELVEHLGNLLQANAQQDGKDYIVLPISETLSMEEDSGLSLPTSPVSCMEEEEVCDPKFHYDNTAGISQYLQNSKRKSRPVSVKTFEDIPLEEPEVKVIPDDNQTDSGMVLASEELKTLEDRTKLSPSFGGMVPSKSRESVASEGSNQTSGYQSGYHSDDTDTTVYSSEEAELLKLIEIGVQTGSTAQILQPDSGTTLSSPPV
Sequence of 456 kinases (of these 395 non-mutant kinases) (Homo sapiens, UniProt Q02763) (Q02763 23-1124 limits assumed, change not shown): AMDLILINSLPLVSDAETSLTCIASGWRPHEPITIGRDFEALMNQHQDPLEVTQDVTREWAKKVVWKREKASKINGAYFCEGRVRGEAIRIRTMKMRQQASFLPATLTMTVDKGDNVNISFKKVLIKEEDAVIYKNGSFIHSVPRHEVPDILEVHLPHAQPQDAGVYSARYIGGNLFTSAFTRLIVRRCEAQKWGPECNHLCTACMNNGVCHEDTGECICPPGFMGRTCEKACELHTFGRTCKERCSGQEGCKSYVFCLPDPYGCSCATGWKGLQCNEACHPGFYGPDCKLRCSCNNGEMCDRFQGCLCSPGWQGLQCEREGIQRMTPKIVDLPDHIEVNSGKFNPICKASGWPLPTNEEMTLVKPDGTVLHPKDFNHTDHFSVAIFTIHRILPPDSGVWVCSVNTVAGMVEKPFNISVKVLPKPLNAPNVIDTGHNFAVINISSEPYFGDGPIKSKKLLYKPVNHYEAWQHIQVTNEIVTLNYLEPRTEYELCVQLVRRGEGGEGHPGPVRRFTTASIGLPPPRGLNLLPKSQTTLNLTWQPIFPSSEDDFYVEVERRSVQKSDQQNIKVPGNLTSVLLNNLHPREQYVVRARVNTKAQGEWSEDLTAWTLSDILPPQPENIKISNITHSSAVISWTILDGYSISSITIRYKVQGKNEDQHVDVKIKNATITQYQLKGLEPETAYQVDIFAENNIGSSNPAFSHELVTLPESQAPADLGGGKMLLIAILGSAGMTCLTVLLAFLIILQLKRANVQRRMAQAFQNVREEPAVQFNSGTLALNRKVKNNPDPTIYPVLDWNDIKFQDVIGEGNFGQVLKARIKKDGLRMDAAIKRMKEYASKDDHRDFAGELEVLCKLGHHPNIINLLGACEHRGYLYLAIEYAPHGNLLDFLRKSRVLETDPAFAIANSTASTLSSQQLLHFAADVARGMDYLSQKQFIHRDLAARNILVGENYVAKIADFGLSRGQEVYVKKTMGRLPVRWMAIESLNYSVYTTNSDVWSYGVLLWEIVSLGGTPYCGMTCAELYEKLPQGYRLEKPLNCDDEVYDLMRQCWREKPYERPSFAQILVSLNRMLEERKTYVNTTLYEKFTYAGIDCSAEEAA
Sequence of 456 kinases (of these 395 non-mutant kinases) (Homo sapiens, UniProt P06239) (P06239 2-509 limits assumed, change not shown): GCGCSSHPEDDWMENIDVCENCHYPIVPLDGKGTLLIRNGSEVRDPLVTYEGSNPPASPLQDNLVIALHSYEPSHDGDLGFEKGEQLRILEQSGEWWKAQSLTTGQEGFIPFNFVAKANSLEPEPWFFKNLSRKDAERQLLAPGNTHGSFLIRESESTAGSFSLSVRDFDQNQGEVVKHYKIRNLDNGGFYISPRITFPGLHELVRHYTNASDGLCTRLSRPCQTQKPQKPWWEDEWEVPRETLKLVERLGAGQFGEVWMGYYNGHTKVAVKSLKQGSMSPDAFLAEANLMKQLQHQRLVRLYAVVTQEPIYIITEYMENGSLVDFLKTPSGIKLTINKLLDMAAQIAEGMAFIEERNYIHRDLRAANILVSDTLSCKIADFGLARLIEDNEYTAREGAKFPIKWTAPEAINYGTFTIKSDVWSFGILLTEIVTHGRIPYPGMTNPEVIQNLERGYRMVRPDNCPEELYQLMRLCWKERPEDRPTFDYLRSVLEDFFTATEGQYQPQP

CCc1ccccc1NC(=O)c1c(C)nsc1Nc1cnc2cc(F)ccc2n1 [Example 20, N-(2-Ethylphenyl)-5-[(6-fluoroquinoxalin-2-yl)amino]-3-methyl-1,2-thiazole-4-carboxamide]
% Ctrl @ 10 μM [1]: 90 % Ctrl | % Ctrl @ 10 μM [2]: 100 % Ctrl | % Ctrl @ 10 μM [3]: 100 % Ctrl | % Ctrl @ 10 μM [4]: 67 % Ctrl | % Ctrl @ 10 μM [5]: 95 % Ctrl | % Ctrl @ 10 μM [6]: 100 % Ctrl | % Ctrl @ 10 μM [7]: 94 % Ctrl | % Ctrl @ 10 μM [8]: 92 % Ctrl | % Ctrl @ 10 μM [9]: 100 % Ctrl | % Ctrl @ 10 μM [10]: 94 % Ctrl | % Ctrl @ 10 μM ([11]; KIT-autoinhibited): 100 % Ctrl | % Ctrl @ 10 μM ([11]; KIT): 98 % Ctrl | % Ctrl @ 10 μM [12]: 100 % Ctrl | % Ctrl @ 10 μM [13]: 97 % Ctrl | % Ctrl @ 10 μM [14]: 81 % Ctrl | % Ctrl @ 10 μM [15]: 62 % Ctrl | % Ctrl @ 10 μM [16]: 88 % Ctrl | % Ctrl @ 10 μM [17]: 100 % Ctrl | % Ctrl @ 10 μM [18]: 90 % Ctrl | % Ctrl @ 10 μM [19]: 100 % Ctrl | % Ctrl @ 10 μM [20]: 100 % Ctrl | % Ctrl @ 10 μM [21]: 91 % Ctrl | % Ctrl @ 10 μM [22]: 100 % Ctrl | % Ctrl @ 10 μM [23]: 100 % Ctrl | % Ctrl @ 10 μM [24]: 100 % Ctrl | % Ctrl @ 10 μM [25]: 100 % Ctrl | % Ctrl @ 10 μM [26]: 94 % Ctrl | % Ctrl @ 10 μM [27]: 100 % Ctrl | % Ctrl @ 10 μM [28]: 100 % Ctrl | % Ctrl @ 10 μM [29]: 100 % Ctrl | % Ctrl @ 10 μM [30]: 90 % Ctrl | % Ctrl @ 10 μM [31]: 73 % Ctrl | % Ctrl @ 10 μM [32]: 100 % Ctrl

Reference: patent US9682995B2, “Amino-substituted isothiazoles” (BAYER PHARMA AKTIENGESELLSCHAFT, priority 2013, dated 2017)
